The target of assay [1] is T1, RARβ (Homo sapiens, UniProt P10826).
T1 sequence (P10826 1-455): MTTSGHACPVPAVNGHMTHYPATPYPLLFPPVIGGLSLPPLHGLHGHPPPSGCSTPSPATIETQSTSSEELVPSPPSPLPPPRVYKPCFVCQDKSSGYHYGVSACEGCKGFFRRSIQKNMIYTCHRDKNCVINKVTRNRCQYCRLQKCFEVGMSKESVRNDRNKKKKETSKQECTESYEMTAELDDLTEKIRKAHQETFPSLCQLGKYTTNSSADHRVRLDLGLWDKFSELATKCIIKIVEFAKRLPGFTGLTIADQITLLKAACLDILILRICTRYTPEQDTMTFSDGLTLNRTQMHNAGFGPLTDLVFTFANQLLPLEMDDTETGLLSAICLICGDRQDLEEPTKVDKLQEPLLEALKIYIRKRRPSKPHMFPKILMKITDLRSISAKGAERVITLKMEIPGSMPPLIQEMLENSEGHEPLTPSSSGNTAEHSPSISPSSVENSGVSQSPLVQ
The experiment in a line: ligand binding assay, RARβ. Particulars: last item of cell, read-out: RAR β Kd. The source says: (§1) Assays described below measure the ability of a compound to bind to, and/or activate various retinoid receptor subtypes. When in these assays a compound binds to a given receptor subtype and activates the transcription of a reporter gene through that subtype, then the compound is considered an agonist of that receptor subtype. […] In the below described assays the ability of the compounds to bind to RARα, RARβ, RARγ, RXRα, RXRβ and RXRγ receptors, and the ability or inability of the compounds to activate transcription of a reporter gene through these receptor subtypes can be tested.
(§2) A holoreceptor transactivation assay and a ligand binding assay which measure the antagonist/agonist like activity of the compounds of the invention, or their ability to bind to the several retinoid receptor subtypes, respectively, are described in published PCT Application No. WO WO93/11755 (particularly on pages 30-33 and 37-41) published on Jun. 24, 1993, the specification of which is also incorporated herein by reference. A detailed experimental procedure for holoreceptor transactivations has been described by Heyman et al. Cell 68, 397-406, (1992); Allegretto et al. J. Biol. Chem. 268, 26625-26633, and Mangelsdorf et al. The Retinoids: Biology, Chemistry and Medicine, pp 319-349, Raven Press Ltd., New York, which are expressly incorporated herein by reference. The results obtained in this assay are expressed in EC50 numbers, as they are also in the chimeric receptor transactivation assay. The results of ligand binding assay are expressed in Kd numbers. (See Cheng et al. Biochemical Pharmacology Vol. 22 pp 3099-3108, expressly incorporated herein by reference.)
(§3) The results of the ligand binding assay for several preferred compounds of the invention are included in Table 1.

The target in assay [2] is T2, RARγ (Homo sapiens, UniProt P13631).
T2 sequence (P13631 1-454): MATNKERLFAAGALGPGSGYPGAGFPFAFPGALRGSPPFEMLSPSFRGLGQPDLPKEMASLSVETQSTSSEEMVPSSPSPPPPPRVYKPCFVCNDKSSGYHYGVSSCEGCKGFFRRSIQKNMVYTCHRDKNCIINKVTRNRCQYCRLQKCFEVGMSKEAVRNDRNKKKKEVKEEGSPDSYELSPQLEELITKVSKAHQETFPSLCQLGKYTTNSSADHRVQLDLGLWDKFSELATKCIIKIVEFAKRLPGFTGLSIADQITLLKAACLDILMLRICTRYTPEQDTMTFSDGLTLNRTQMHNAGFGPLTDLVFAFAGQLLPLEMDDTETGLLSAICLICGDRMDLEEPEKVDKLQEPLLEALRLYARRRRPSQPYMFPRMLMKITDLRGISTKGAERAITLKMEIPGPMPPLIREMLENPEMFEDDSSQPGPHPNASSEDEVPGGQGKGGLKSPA
As to the kind of experiment: ligand binding assay, RARγ. To be noted: last item of cell, read-out: RAR γ Kd.
Source text: as §1, §2, §3

Assay [3] addresses T3, P450RAI-1 (Homo sapiens, UniProt O43174).
T3 construct: expressed in transfected cells; host or cells: HeLa
T3 sequence (O43174 1-497): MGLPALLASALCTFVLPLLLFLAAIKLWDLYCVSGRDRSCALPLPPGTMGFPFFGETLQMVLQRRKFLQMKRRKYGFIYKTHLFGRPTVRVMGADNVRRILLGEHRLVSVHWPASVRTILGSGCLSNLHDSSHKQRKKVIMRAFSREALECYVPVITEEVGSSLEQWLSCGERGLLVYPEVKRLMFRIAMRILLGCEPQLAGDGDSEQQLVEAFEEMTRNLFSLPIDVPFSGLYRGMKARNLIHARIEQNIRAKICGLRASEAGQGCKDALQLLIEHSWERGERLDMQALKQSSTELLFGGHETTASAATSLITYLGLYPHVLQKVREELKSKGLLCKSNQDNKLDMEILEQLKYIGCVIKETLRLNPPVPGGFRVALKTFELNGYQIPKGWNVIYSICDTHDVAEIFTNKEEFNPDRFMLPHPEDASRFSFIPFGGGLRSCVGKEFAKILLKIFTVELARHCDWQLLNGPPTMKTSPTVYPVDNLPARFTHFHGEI
As to the kind of experiment: P450RAI-1 cell-based inhibitor assay ([3H]-RA metabolism, intact cells). To be noted: P450RAI-1 stably transfected HeLa cells, 3 hours at 37° C., all-trans-RA metabolism; read-out: P450RAI INHIBITION DATA RAI-1 Intact cells IC50. On the procedure:
FIG. 1 is a schematic representation of the P450RAI cell based assay utilized to evaluate the ability of the compounds of the invention to inhibit the Cytochrome P450RAI enzyme.
P450RAI-1 and P450RAI-2 Cell-Based Inhibitor Assay:
P450RAI-1 stably transfected HeLa cells, or P450RAI-2 stably transfected HeLa cells, as applicable, are maintained in […] tissue culture dishes in Modified Eagle's Medium (MEM) containing 10% Fetal Bovine Serum (FBS) and 100 μg/ml hygromycin. Exponentially growing cells are harvested by incubating in trypsin. Cells are then washed with 1X Phosphate Buffered Saline (PBS) and plated in a 48-well plate at 5×10^5 cells in 0.2 ml MEM medium containing 10% FBS and 0.05 μCi [^3H]-RA in the presence or absence of increasing concentrations of the test compounds. The compounds are diluted in 100% DMSO and then added in triplicate wells at either 10, 1 or 0.1 μM final concentration. As a positive control for RA metabolism inhibition, cells are also incubated with ketoconazole at 100, 10 and 1 μM. Cells are incubated for 3 hours at 37° C. The retinoids are then extracted using the procedure of Bligh et al. (1959) Canadian Journal of Biochemistry 37, 911-917, modified by using methylenechloride instead of chloroform. The publication Bligh et al. (1959) Canadian Journal of Biochemistry 37, 911-917 is specifically incorporated herein by reference. The water soluble radioactivity is quantified using a β-scintillation counter. IC50 values represent the concentration of inhibitor required to inhibit all-trans-RA metabolism by 50 percent and are derived manually from log-transformed data.

In general, Kd refers to the free concentration of one partner at which half of the binding sites on the other are occupied at equilibrium, for simple one-to-one binding. In general, IC50 refers to the midpoint of a concentration-inhibition curve. With `C#Cc1cc(C(=O)Oc2ccc(CC(=O)O)cc2)cc2c1OC(C)(C)CC2(C)C` [Compound 1, 8-Ethynyl-2,2,4,4-tetramethyl-chroman-6-carboxylic acid 4-carboxymethyl-phenyl ester], the equilibrium dissociation constant (Kd) in assay [1] and in assay [2] was greater than 10 µM throughout. For the same molecule, in assay [3], the IC50 was 0.5 µM.

`C#Cc1cc(C(=O)Oc2ccc(CC(=O)OCC)cc2)cc2c1OC(C)(C)CC2(C)C` [Compound 2, 8-Ethynyl-2,2,4,4-tetramethyl-chroman-6-carboxylic acid 4-ethoxycarbonylmethyl-phenyl ester]: the Kd in assay [1] and in assay [2] was greater than 10 µM in each case. Moreover, the IC50 in assay [3] is 6 µM.

For the molecule `C#Cc1cc(C(=O)Oc2ccc(CC(=O)OCOC(C)=O)cc2)cc2c1OC(C)(C)CC2(C)C` [Compound 3, 8-Ethynyl-2,2,4,4-tetramethyl-chroman-6-carboxylic acid 4-acetoxymethoxycarbonylmethyl-phenyl ester], the equilibrium dissociation constant (Kd) in assay [1] and in assay [2] was greater than 10 µM each time. In addition, the half-inhibitory concentration (IC50) in assay [3] was found to be 0.5 µM.

Turning to `C#Cc1cc(C(=O)Oc2ccc(CC(=O)O)c(F)c2)cc2c1OC(C)(C)CC2(C)C` [Compound 4, 8-Ethynyl-2,2,4,4-tetramethyl-chroman-6-carboxylic acid-4-carboxymethyl-3-fluoro-phenyl ester], the Kd in assay [1] was 6.56 µM; in assay [2] it was greater than 10 µM. Also, in assay [3], the IC50 was 0.1 µM.

Regarding `C#Cc1cc(C(=O)Oc2ccc(CC(=O)OCOC(C)=O)c(F)c2)cc2c1OC(C)(C)CC2(C)C` [Compound 5, 8-Ethynyl-2,2,4,4-tetramethyl-chroman-6-carboxylic acid 4-acetoxymethoxycarbonylmethyl-3-fluoro-phenyl ester], the values for the Kd in assay [1] and in assay [2] were 5.55 µM and greater than 10 µM, respectively. For the same molecule, the 50% inhibitory concentration (IC50) in assay [3] was 0.075 µM.

On to `CC1(C)CC(C)(C)c2cc(C(=O)Oc3ccc(CC(=O)O)c(F)c3)cc(C#N)c2O1` [Compound 32, 8-Cyano-2,2,4,4-tetramethyl-chroman-6-carboxylic acid-4-carboxymethyl-3-fluoro-phenyl ester], for which the Kd in assay [1] and in assay [2] was greater than 10 µM throughout. The concentration for half-maximal inhibition (IC50) in assay [3] is 0.1 µM.

In the case of `CC(=O)OCOC(=O)Cc1ccc(OC(=O)c2cc(C#N)c3c(c2)C(C)(C)CC(C)(C)O3)cc1F` [Compound 33, 8-Cyano-2,2,4,4-tetramethyl-chroman-6-carboxylic acid 4-acetoxymethoxycarbonylmethyl-3-fluoro-phenyl ester], the Kd in assay [1] and in assay [2] was greater than 10 µM each time. Further, in assay [3], the IC50 is 0.1 µM.

In the case of `C#Cc1cc(C#Cc2ccc(CC(=O)O)cc2)cc2c1OC(C)(C)CC2(C)C` [Compound 40, [4-(8-Ethynyl-2,2,4,4-tetramethyl-chroman-6-ylethynyl)-phenyl]-acetic acid], the results for the Kd in assay [1] and in assay [2] were 7.62 µM and greater than 10 µM, respectively. In assay [3], the concentration for half-maximal inhibition (IC50) is 0.01 µM.

For the molecule `C#Cc1cc(C#Cc2ccc(CC(=O)O)c(F)c2)cc2c1OC(C)(C)CC2(C)C` [Compound 41, [4-(8-Ethynyl-2,2,4,4-tetramethyl-chroman-6-ylethynyl)-2-fluoro-phenyl]-acetic acid], the dissociation constant (Kd) in assay [1] is 4.95 µM; in assay [2], greater than 10 µM. In assay [3], the 50% inhibitory concentration (IC50) came to 0.004 µM.

Regarding `C#CCc1cc(C#Cc2ccc(CC(=O)O)cc2)cc2c1OC(C)(C)CC2(C)C` [Compound 49], the Kd in assay [1] was greater than 10 µM; in assay [2] it was 8.24 µM. The 50% inhibitory concentration (IC50) in assay [3] amounted to 0.018 µM.

(Values after patent publication US7351737B2, “4-[(8-substituted)-6-chromanoyl]-and 4-[8-substituted)-chroman-6-YL-ethynyl]-benzoic and phenylacetic acids, their esters and salts having cytochrome P450RAI inhibitory activity” (Allergan, Inc., priority 2002, dated 2008).)
